What was measured:
[1] = molecular target: RAC-gamma serine/threonine-protein kinase (Homo sapiens) (UniProt Q9Y243); settings: Compound concentration 1000.0 nM
[2] = molecular target: Cyclin-dependent kinase 19 (Homo sapiens) (UniProt Q9BWU1); settings: Compound concentration 1000.0 nM
[3] = molecular target: Cyclin-dependent kinase 4 (Homo sapiens) (UniProt P11802); settings: Compound concentration 1000.0 nM
[4] = molecular target: Dual specificity tyrosine-phosphorylation-regulated kinase 1B (Homo sapiens) (UniProt Q9Y463); settings: Compound concentration 1000.0 nM
[5] = system: Epidermal growth factor receptor (Homo sapiens), P00533 [L858R,T790M]; settings: Compound concentration 1000.0 nM
[6] = system: Epidermal growth factor receptor (Homo sapiens), P00533 [T790M]; settings: Compound concentration 1000.0 nM
[7] = molecular target: Eukaryotic translation initiation factor 2-alpha kinase 1 (Homo sapiens) (UniProt Q9BQI3); settings: Compound concentration 1000.0 nM
[8] = molecular target: Ephrin type-A receptor 7 (Homo sapiens) (UniProt Q15375); settings: Compound concentration 1000.0 nM
[9] = molecular target: Ephrin type-B receptor 3 (Homo sapiens) (UniProt P54753); settings: Compound concentration 1000.0 nM
[10] = molecular target: Ephrin type-B receptor 6 (Homo sapiens) (UniProt O15197); settings: Compound concentration 1000.0 nM
[11] = molecular target: Mitogen-activated protein kinase 3 (Homo sapiens) (UniProt P27361); settings: Compound concentration 1000.0 nM
[12] = molecular target: Fibroblast growth factor receptor 3 (Homo sapiens) (UniProt P22607); settings: Compound concentration 1000.0 nM
[13] = system: Receptor-type tyrosine-protein kinase FLT3 (Homo sapiens), P36888 [UNDEFINED MUTATION]; settings: Compound concentration 1000.0 nM
[14] = system: Receptor-type tyrosine-protein kinase FLT3 (Homo sapiens), P36888 [R834Q]; settings: Compound concentration 1000.0 nM
[15] = molecular target: Glycogen synthase kinase-3 beta (Homo sapiens) (UniProt P49841); settings: Compound concentration 1000.0 nM
[16] = molecular target: Homeodomain-interacting protein kinase 3 (Homo sapiens) (UniProt Q9H422); settings: Compound concentration 1000.0 nM
[17] = molecular target: Hormonally up-regulated neu tumor-associated kinase (Homo sapiens) (UniProt P57058); settings: Compound concentration 1000.0 nM
[18] = molecular target: Tyrosine-protein kinase JAK2 (Homo sapiens) (UniProt O60674); settings: Compound concentration 1000.0 nM
[19] = molecular target: Mitogen-activated protein kinase 8 (Homo sapiens) (UniProt P45983); settings: Compound concentration 1000.0 nM
[20] = molecular target: Mitogen-activated protein kinase 9 (Homo sapiens) (UniProt P45984); settings: Compound concentration 1000.0 nM
[21] = system: Mast/stem cell growth factor receptor Kit (Homo sapiens), P10721 [A829P]; settings: Compound concentration 1000.0 nM
[22] = molecular target: Tyrosine-protein kinase Lck (Homo sapiens) (UniProt P06239); settings: Compound concentration 1000.0 nM
[23] = molecular target: Serine/threonine-protein kinase STK11 (Homo sapiens) (UniProt Q15831); settings: Compound concentration 1000.0 nM
[24] = molecular target: Mitogen-activated protein kinase kinase kinase 1 (Homo sapiens) (UniProt Q13233); settings: Compound concentration 1000.0 nM
[25] = molecular target: Mitogen-activated protein kinase kinase kinase kinase 2 (Homo sapiens) (UniProt Q12851); settings: Compound concentration 1000.0 nM
[26] = molecular target: Myosin light chain kinase (Homo sapiens) (UniProt Q32MK0); settings: Compound concentration 1000.0 nM
[27] = molecular target: Macrophage-stimulating protein receptor (Homo sapiens) (UniProt Q04912); settings: Compound concentration 1000.0 nM
[28] = molecular target: Myosin light chain kinase, smooth muscle (Homo sapiens) (UniProt Q15746); settings: Compound concentration 1000.0 nM
[29] = molecular target: Serine/threonine-protein kinase Nek2 (Homo sapiens) (UniProt P51955); settings: Compound concentration 1000.0 nM
[30] = molecular target: Serine/threonine-protein kinase OSR1 (Homo sapiens) (UniProt O95747); settings: Compound concentration 1000.0 nM
[31] = molecular target: Serine/threonine-protein kinase PLK3 (Homo sapiens) (UniProt Q9H4B4); settings: Compound concentration 1000.0 nM
[32] = molecular target: Protein kinase C delta type (Homo sapiens) (UniProt Q05655); settings: Compound concentration 1000.0 nM
[33] = molecular target: Protein kinase C theta type (Homo sapiens) (UniProt Q04759); settings: Compound concentration 1000.0 nM
[34] = molecular target: Serine/threonine-protein kinase RIO2 (Homo sapiens) (UniProt Q9BVS4); settings: Compound concentration 1000.0 nM
[35] = molecular target: Ribosomal protein S6 kinase alpha-1 (Homo sapiens) (UniProt Q15418); settings: Compound concentration 1000.0 nM
[36] = molecular target: Ribosomal protein S6 kinase alpha-6 (Homo sapiens) (UniProt Q9UK32); settings: Compound concentration 1000.0 nM
[37] = molecular target: Uncharacterized serine/threonine-protein kinase SBK3 (Homo sapiens) (UniProt P0C264); settings: Compound concentration 1000.0 nM
[38] = molecular target: Serine/threonine-protein kinase TAO3 (Homo sapiens) (UniProt Q9H2K8); settings: Compound concentration 1000.0 nM
[39] = molecular target: Transient receptor potential cation channel subfamily M member 6 (Homo sapiens) (UniProt Q9BX84); settings: Compound concentration 1000.0 nM
[40] = molecular target: Serine/threonine-protein kinase WNK3 (Homo sapiens) (UniProt Q9BYP7); settings: Compound concentration 1000.0 nM
[41] = molecular target: Serine/threonine-protein kinase WNK4 (Homo sapiens) (UniProt Q96J92); settings: Compound concentration 1000.0 nM
[42] = molecular target: 5-hydroxytryptamine receptor 1B (Homo sapiens) (UniProt P28222); settings: Compound concentration 10.0 uM
[43] = molecular target: 5-hydroxytryptamine receptor 1D (Homo sapiens) (UniProt P28221); settings: Compound concentration 10.0 uM
[44] = molecular target: Alpha-1B adrenergic receptor (Homo sapiens) (UniProt P35368); settings: Compound concentration 10.0 uM
[45] = molecular target: Alpha-2C adrenergic receptor (Homo sapiens) (UniProt P18825); settings: Compound concentration 10.0 uM

Sequence of Protein kinase C delta type (Homo sapiens) (Q05655 whole entry, looked up): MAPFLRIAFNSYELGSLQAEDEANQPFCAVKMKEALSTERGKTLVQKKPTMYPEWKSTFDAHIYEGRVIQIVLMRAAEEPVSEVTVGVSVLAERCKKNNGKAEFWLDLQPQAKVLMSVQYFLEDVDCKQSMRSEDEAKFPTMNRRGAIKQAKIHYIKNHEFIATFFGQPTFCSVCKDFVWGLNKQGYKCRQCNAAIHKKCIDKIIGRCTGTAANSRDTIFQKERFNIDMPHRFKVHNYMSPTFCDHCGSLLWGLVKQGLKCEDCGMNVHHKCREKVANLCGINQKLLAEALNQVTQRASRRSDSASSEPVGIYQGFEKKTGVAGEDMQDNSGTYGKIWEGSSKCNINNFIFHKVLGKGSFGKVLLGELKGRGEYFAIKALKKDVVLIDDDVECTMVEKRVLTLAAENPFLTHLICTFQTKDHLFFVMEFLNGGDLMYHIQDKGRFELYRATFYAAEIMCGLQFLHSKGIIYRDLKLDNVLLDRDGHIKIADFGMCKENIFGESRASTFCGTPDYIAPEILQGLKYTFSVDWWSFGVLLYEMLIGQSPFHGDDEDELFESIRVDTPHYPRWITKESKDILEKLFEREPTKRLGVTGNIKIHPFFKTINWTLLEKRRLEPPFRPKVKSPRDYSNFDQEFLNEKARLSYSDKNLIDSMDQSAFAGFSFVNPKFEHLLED
Sequence of Cyclin-dependent kinase 4 (Homo sapiens) (P11802 whole entry): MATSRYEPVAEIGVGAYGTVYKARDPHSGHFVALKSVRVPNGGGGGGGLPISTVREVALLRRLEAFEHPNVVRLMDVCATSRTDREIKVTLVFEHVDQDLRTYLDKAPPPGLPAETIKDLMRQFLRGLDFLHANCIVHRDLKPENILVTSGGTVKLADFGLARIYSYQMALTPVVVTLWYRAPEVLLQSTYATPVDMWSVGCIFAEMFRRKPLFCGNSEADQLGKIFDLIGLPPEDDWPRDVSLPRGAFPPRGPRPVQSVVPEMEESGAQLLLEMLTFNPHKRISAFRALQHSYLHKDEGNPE
Sequence of Ribosomal protein S6 kinase alpha-1 (Homo sapiens) (Q15418 whole entry): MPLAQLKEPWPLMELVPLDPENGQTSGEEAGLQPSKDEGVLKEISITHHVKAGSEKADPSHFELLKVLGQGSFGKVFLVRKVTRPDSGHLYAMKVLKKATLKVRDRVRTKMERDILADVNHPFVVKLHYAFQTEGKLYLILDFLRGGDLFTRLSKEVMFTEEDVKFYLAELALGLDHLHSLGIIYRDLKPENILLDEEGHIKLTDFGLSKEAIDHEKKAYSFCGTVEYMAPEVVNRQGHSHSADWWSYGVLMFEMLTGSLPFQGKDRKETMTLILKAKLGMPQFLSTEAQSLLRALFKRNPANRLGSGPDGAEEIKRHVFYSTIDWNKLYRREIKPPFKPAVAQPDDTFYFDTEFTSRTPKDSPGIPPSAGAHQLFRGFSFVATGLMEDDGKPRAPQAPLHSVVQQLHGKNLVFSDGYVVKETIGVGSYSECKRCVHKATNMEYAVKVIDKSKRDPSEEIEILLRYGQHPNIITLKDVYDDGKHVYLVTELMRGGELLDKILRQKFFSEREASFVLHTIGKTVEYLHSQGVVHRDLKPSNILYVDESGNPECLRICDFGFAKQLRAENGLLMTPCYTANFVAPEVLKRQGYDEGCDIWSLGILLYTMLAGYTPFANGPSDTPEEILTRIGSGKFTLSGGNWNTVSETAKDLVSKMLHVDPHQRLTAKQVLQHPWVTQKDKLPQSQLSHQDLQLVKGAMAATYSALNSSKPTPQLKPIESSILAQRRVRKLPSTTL
Sequence of Transient receptor potential cation channel subfamily M member 6 (Homo sapiens) (Q9BX84 whole entry): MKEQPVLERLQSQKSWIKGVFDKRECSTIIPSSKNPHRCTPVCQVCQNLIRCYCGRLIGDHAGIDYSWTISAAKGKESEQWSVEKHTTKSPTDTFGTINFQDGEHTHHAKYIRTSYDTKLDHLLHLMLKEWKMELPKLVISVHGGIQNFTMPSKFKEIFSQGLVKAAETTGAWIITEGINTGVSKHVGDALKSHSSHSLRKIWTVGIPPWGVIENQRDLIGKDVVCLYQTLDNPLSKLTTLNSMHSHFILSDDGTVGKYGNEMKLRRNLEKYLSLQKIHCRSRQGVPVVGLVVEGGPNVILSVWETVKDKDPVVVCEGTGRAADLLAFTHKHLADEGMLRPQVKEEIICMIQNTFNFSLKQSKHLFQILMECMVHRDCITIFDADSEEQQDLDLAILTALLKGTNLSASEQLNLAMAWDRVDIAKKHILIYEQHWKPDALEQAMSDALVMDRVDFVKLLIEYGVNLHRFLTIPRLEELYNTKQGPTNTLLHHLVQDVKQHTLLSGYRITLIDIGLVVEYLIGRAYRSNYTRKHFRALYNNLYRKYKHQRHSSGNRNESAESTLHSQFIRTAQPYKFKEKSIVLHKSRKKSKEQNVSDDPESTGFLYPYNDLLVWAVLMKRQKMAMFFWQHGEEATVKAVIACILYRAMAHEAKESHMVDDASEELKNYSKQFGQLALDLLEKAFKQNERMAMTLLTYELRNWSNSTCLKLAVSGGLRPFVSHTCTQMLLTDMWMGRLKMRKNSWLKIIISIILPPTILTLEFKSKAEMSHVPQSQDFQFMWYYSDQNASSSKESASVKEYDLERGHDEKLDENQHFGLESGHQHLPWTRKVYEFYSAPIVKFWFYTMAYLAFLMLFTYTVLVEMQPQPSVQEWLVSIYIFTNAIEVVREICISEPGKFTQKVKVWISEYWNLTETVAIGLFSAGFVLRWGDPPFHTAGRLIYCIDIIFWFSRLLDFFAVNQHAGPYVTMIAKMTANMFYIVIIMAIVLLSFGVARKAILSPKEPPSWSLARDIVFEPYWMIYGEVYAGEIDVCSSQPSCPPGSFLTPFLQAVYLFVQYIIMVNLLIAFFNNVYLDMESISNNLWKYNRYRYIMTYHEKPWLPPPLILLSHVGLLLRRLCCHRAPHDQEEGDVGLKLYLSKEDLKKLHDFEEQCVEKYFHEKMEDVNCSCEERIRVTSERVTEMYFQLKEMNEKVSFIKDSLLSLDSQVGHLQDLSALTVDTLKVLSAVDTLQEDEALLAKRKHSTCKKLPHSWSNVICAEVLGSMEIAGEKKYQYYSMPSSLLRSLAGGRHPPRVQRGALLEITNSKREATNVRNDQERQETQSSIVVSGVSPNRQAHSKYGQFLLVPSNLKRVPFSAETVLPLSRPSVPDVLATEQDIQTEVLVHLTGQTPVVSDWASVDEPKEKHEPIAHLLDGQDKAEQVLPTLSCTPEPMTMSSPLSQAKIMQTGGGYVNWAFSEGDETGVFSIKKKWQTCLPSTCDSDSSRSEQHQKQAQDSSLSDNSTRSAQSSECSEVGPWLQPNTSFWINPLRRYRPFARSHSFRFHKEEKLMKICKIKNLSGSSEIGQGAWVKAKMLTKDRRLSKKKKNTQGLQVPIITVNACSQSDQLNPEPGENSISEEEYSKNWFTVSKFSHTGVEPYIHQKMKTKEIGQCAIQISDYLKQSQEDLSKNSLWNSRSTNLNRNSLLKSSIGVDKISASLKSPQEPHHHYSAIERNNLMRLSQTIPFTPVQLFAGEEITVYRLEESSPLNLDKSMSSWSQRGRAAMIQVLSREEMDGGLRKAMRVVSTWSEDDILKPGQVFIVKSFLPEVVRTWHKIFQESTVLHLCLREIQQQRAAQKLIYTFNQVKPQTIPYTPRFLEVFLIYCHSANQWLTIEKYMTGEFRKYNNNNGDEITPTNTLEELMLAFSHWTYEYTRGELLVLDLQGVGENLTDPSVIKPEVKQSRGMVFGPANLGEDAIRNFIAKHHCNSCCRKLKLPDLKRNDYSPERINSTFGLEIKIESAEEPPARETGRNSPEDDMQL
Sequence of Mitogen-activated protein kinase 3 (Homo sapiens) (P27361 whole entry): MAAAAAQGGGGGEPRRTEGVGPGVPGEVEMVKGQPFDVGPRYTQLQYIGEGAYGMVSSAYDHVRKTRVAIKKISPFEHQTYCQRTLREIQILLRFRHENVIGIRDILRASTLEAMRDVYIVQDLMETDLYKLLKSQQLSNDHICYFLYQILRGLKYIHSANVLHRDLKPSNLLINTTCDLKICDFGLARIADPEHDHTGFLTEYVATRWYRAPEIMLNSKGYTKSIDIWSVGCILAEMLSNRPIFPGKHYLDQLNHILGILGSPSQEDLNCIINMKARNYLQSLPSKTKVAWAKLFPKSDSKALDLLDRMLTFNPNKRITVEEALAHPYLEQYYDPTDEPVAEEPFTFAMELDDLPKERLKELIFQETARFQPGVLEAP
Sequence of Serine/threonine-protein kinase PLK3 (Homo sapiens) (Q9H4B4 whole entry, looked up): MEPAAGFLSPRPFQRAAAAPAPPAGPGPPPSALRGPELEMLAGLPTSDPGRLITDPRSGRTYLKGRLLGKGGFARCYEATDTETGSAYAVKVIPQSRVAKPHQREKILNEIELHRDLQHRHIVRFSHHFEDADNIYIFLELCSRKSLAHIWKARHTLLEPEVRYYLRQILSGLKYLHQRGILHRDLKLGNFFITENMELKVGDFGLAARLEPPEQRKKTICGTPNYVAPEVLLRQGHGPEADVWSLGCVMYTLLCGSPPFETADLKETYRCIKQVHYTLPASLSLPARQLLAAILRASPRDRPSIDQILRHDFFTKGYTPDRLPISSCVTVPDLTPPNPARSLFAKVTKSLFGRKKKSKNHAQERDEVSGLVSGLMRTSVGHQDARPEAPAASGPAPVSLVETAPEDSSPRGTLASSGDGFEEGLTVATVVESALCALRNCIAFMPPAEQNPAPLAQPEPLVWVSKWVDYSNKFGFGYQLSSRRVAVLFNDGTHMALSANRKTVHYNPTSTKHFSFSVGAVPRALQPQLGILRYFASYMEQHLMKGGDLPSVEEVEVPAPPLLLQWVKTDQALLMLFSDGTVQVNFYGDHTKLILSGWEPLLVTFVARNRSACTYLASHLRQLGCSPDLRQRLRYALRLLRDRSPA

CCS(=O)(=O)c1cc2cc(C[C@](O)(CC(C)(C)c3ccc(F)cc3C(N)=O)C(F)(F)F)[nH]c2cn1
inactive: residual activity [1] 100% | residual activity [2] 100% | residual activity [3] 97% | residual activity [4] 88% | residual activity [5] 83% | residual activity [6] 78% | residual activity [7] 100% | residual activity [8] 86% | residual activity [9] 100% | residual activity [10] 100% | residual activity [11] 93% | residual activity [12] 100% | residual activity [13] 91% | residual activity [14] 100% | residual activity [15] 100% | residual activity [16] 100% | residual activity [17] 100% | residual activity [18] 53% | residual activity [19] 100% | residual activity [20] 100% | residual activity [21] 89% | residual activity [22] 100% | residual activity [23] 100% | residual activity [24] 87% | residual activity [25] 96% | residual activity [26] 74% | residual activity [27] 100% | residual activity [28] 96% | residual activity [29] 100% | residual activity [30] 90% | residual activity [31] 93% | residual activity [32] 100% | residual activity [33] 87% | residual activity [34] 100% | residual activity [35] 100% | residual activity [36] 82% | residual activity [37] 100% | residual activity [38] 86% | residual activity [39] 86% | residual activity [40] 100% | residual activity [41] 100% | inhibition [42] 9.55% | inhibition [43] 5.54% | inhibition [44] 3.39% | inhibition [45] -1.88%

CCS(=O)(=O)c1cc2cc(C[C@@](O)(CC(C)(C)c3ccc(F)cc3C(N)=O)C(F)(F)F)[nH]c2cn1
inactive: residual activity [1] 90% | residual activity [2] 100% | residual activity [3] 100% | residual activity [4] 100% | residual activity [5] 83% | residual activity [6] 88% | residual activity [7] 80% | residual activity [8] 94% | residual activity [9] 92% | residual activity [10] 100% | residual activity [11] 98% | residual activity [12] 80% | residual activity [13] 78% | residual activity [14] 78% | residual activity [15] 90% | residual activity [16] 65% | residual activity [17] 100% | residual activity [18] 100% | residual activity [19] 98% | residual activity [20] 84% | residual activity [21] 73% | residual activity [22] 81% | residual activity [23] 100% | residual activity [24] 51% | residual activity [25] 80% | residual activity [26] 80% | residual activity [27] 85% | residual activity [28] 93% | residual activity [29] 94% | residual activity [30] 88% | residual activity [31] 99% | residual activity [32] 99% | residual activity [33] 97% | residual activity [34] 95% | residual activity [35] 100% | residual activity [36] 100% | residual activity [37] 94% | residual activity [38] 78% | residual activity [39] 72% | residual activity [40] 100% | residual activity [41] 84% | inhibition [42] 4.85% | inhibition [43] 7.98% | inhibition [44] 1.64% | inhibition [45] 5.83%

Reference: ChEMBL document CHEMBL4507277
